Measurements published in patent US6355474B1, “Immunostimulatory and metastasis inhibiting fermented vegetal material” (priority 1997, dated 2002).

How the values were obtained:
[1] = literature; cited from earlier work
[2] = Stability (storage) tests via 2.6-DMBQ / 2-MBQ concentration by HPLC; assay type: physicochemical
Experimental: The decomposition of the material according to the invention was checked via the chanqes in concentration of the 2.6-dimethoxy-p-benzoquinone. We conducted storage experiments at three different temperatures (room temperature 20° C. 40° C. and 60° C.) The lyophilisate—about 1 g—as stored in test-tubes which were sealed air-tight. The duration of the experiments was 8 weeks, every week three parallel measurements were conducted on samples taken from all three series kept at different temperatures. The quantitative analysis of benzoquinone derivatives was conducted by HPLC.

malignant tumour cells = conditions: literature; cited from earlier work

SMILES | fungicidal and bacteriostatic effect [1] | decomposition of 2-methoxy-p-benzoquinone in the stored material ([2]; room temperature) | decomposition of 2-methoxy-p-benzoquinone in the stored material ([2]; samples kept at 40 or 60° C.) | cytotoxicity for malignant tumour cells (malignant tumour cells)
COC1=CC(=O)C=CC1=O [2-MBQ, 2-methoxy-p-benzoquinone] | fungicidal and bacteriostatic effect | remained unchanged | could not be shown after one week of storage | –
COC1=CC(=O)C=C(OC)C1=O [2.6-DMBQ, 2.6-dimethoxy-p-benzoquinone] | fungicidal and bacteriostatic effect | – | – | cytotoxic
